Measured values: PubChem BioAssay (NCI)
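GI50: concentration for 50% inhibition of growth. TGI marks complete inhibition of growth.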

Columns and labels:
Assay in all cases: inhibition of tumour cell growth, NCI panel, 384-well format
HCT-15 colon = tested on: HCT-15 colon
HOP-62 NSCLC = tested on: HOP-62 NSCLC
TK-10 renal = tested on: TK-10 renal
IGROV1 ovarian = tested on: IGROV1 ovarian
MALME-3M melanoma = tested on: MALME-3M melanoma
MDA-MB-435 melanoma = tested on: MDA-MB-435 melanoma
HL-60(TB) leukemia = tested on: HL-60(TB) leukemia
OVCAR-4 ovarian = tested on: OVCAR-4 ovarian
CAKI-1 renal = tested on: CAKI-1 renal
SF-295 CNS = tested on: SF-295 CNS
MOLT-4 leukemia = tested on: MOLT-4 leukemia
T-47D breast = tested on: T-47D breast
OVCAR-3 ovarian = tested on: OVCAR-3 ovarian
KM12 colon = tested on: KM12 colon
HT29 colon = tested on: HT29 colon
MDA-MB-231 breast = tested on: MDA-MB-231 breast
NCI-H322M lung = tested on: NCI-H322M lung
NCI-H226 lung = tested on: NCI-H226 lung
MDA-MB-468 breast = tested on: MDA-MB-468 breast
CCRF-CEM leukemia = tested on: CCRF-CEM leukemia
RPMI-8226 leukemia = tested on: RPMI-8226 leukemia
SNB-19 CNS = tested on: SNB-19 CNS
ACHN renal = tested on: ACHN renal
A498 renal = tested on: A498 renal
RXF 393 renal = tested on: RXF 393 renal
SK-OV-3 ovarian = tested on: SK-OV-3 ovarian
MCF7 breast = tested on: MCF7 breast
SW-620 colon = tested on: SW-620 colon
SF-539 CNS = tested on: SF-539 CNS
SR leukemia = tested on: SR leukemia
NCI-H23 lung = tested on: NCI-H23 lung
SK-MEL-5 melanoma = tested on: SK-MEL-5 melanoma
UO-31 renal = tested on: UO-31 renal
SK-MEL-2 melanoma = tested on: SK-MEL-2 melanoma
U251 glioblastoma = tested on: U251 glioblastoma
786-0 renal = tested on: 786-0 renal
HCT-116 colon = tested on: HCT-116 colon
UACC-257 melanoma = tested on: UACC-257 melanoma
OVCAR-8 ovarian = tested on: OVCAR-8 ovarian
DU-145 prostate = tested on: DU-145 prostate
NCI-H522 lung = tested on: NCI-H522 lung
SF-268 CNS = tested on: SF-268 CNS
NCI/ADR-RES ovarian = tested on: NCI/ADR-RES ovarian
SK-MEL-28 melanoma = tested on: SK-MEL-28 melanoma
NCI-H460 NSCLC = tested on: NCI-H460 NSCLC
EKVX NSCLC = tested on: EKVX NSCLC
HCC-2998 colon = tested on: HCC-2998 colon
SN12C renal = tested on: SN12C renal
BT-549 breast = tested on: BT-549 breast
M14 melanoma = tested on: M14 melanoma
SNB-75 CNS = tested on: SNB-75 CNS
A549 NSCLC = tested on: A549 NSCLC
COLO 205 colon = tested on: COLO 205 colon
UACC-62 melanoma = tested on: UACC-62 melanoma
LOX IMVI melanoma = tested on: LOX IMVI melanoma
OVCAR-5 ovarian = tested on: OVCAR-5 ovarian
K-562 leukemia = tested on: K-562 leukemia
HOP-92 NSCLC = tested on: HOP-92 NSCLC
PC-3 prostate = tested on: PC-3 prostate

## C=CC(=O)Nc1cc(N2CCN(CC)CC2)ccc1Nc1cc(N(C)C(=O)Nc2c(Cl)c(OC)cc(OC)c2Cl)ncn1
HCT-15 colon
  GI50: 2830 nM
  TGI: 6990 nM
HOP-62 NSCLC
  GI50: 2450 nM
  TGI: 6360 nM
TK-10 renal
  GI50: 2180 nM
  TGI: 5020 nM
IGROV1 ovarian
  GI50: 1860 nM
  TGI: 3660 nM
MALME-3M melanoma
  GI50: 1960 nM
  TGI: 3470 nM
MDA-MB-435 melanoma
  GI50: 2560 nM
  TGI: 5840 nM
HL-60(TB) leukemia
  GI50: 1940 nM
  TGI: 3370 nM
OVCAR-4 ovarian
  GI50: 2030 nM
  TGI: 6620 nM
CAKI-1 renal
  GI50: 2640 nM
  TGI: 7010 nM
SF-295 CNS
  GI50: 15800 nM
  TGI: 29400 nM
MOLT-4 leukemia
  GI50: 910 nM
  TGI: 2210 nM
T-47D breast
  GI50: 1310 nM
  TGI: 2990 nM
OVCAR-3 ovarian
  GI50: 1400 nM
  TGI: 2850 nM
KM12 colon
  GI50: 1760 nM
  TGI: 3230 nM
HT29 colon
  GI50: 1970 nM
  TGI: 3960 nM
MDA-MB-231 breast
  GI50: 1670 nM
  TGI: 3310 nM
NCI-H322M lung
  GI50: 10500 nM
  TGI: 31000 nM
NCI-H226 lung
  GI50: 1840 nM
  TGI: 4390 nM
MDA-MB-468 breast
  GI50: 785 nM
  TGI: 2010 nM
CCRF-CEM leukemia
  GI50: 1560 nM
  TGI: 2920 nM
RPMI-8226 leukemia
  GI50: 605 nM
  TGI: 1520 nM
SNB-19 CNS
  GI50: 2890 nM
  TGI: 7710 nM
ACHN renal
  GI50: 4550 nM
  TGI: 10700 nM
A498 renal
  GI50: 1720 nM
  TGI: 3140 nM
RXF 393 renal
  GI50: 680 nM
  TGI: 2190 nM
SK-OV-3 ovarian
  GI50: 2510 nM
  TGI: 6710 nM
MCF7 breast
  GI50: 1750 nM
  TGI: 6280 nM
SW-620 colon
  GI50: 1770 nM
  TGI: 3180 nM
SF-539 CNS
  GI50: 1580 nM
  TGI: 2950 nM
SR leukemia
  GI50: 922 nM
  TGI: 2230 nM
NCI-H23 lung
  GI50: 3680 nM
  TGI: 10000 nM
SK-MEL-5 melanoma
  GI50: 1800 nM
  TGI: 3430 nM
UO-31 renal
  GI50: 2030 nM
  TGI: 4080 nM
SK-MEL-2 melanoma
  GI50: 1210 nM
  TGI: 2460 nM
U251 glioblastoma
  GI50: 1890 nM
  TGI: 3440 nM
786-0 renal
  GI50: 1710 nM
  TGI: 3140 nM
HCT-116 colon
  GI50: 1880 nM
  TGI: 3460 nM
UACC-257 melanoma
  GI50: 1420 nM
  TGI: 2780 nM
OVCAR-8 ovarian
  GI50: 1760 nM
  TGI: 3310 nM
DU-145 prostate
  GI50: 1910 nM
  TGI: 3760 nM
NCI-H522 lung
  GI50: 1630 nM
  TGI: 3020 nM
SF-268 CNS
  GI50: 1880 nM
  TGI: 3960 nM
NCI/ADR-RES ovarian
  GI50: > 44600 nM
  TGI: > 78500 nM
SK-MEL-28 melanoma
  GI50: 2050 nM
  TGI: 4390 nM
NCI-H460 NSCLC
  GI50: 1730 nM
  TGI: 3180 nM
EKVX NSCLC
  GI50: 2340 nM
  TGI: 5570 nM
HCC-2998 colon
  GI50: 1700 nM
  TGI: 3080 nM
SN12C renal
  GI50: 2010 nM
  TGI: 3740 nM
BT-549 breast
  GI50: 1400 nM
  TGI: 2730 nM
M14 melanoma
  GI50: 2380 nM
  TGI: 5120 nM
SNB-75 CNS
  GI50: 1980 nM
  TGI: 4310 nM
A549 NSCLC
  GI50: 5630 nM
  TGI: 13100 nM
COLO 205 colon
  GI50: 2310 nM
  TGI: 4240 nM
UACC-62 melanoma
  GI50: 1560 nM
  TGI: 3030 nM
LOX IMVI melanoma
  GI50: 1870 nM
  TGI: 3280 nM
OVCAR-5 ovarian
  GI50: 7010 nM
  TGI: 19000 nM
K-562 leukemia
  GI50: 1850 nM
  TGI: 3400 nM
HOP-92 NSCLC
  GI50: 1020 nM
  TGI: 2770 nM
PC-3 prostate
  GI50: 1810 nM
  TGI: 3270 nM
